Results as given in ChEMBL document CHEMBL3611985, “Synthesis and structure-activity relationships of novel 9-oxime acylides with improved bactericidal activity” (2015).
Values after ≈ are worked out from the molar mass of the structure shown.

How the values were obtained:
Format in all cases: functional
[1] = tested on: Streptococcus pneumoniae; test: Antimicrobial activity against erythromycin-susceptible Streptococcus pneumoniae ATCC 49619 incubated for 20 to 24 hrs by two-fold microbroth dilution method
[2] = tested on: Streptococcus pneumoniae; test: Antimicrobial activity against penicillin-susceptible Streptococcus pneumoniae PU09 incubated for 20 to 24 hrs by two-fold microbroth dilution method
[3] = tested on: Streptococcus pyogenes; test: Antimicrobial activity against Streptococcus pyogenes 01-968 expressing inducible ermA incubated for 20 to 24 hrs by two-fold microbroth dilution method
[4] = tested on: Staphylococcus aureus; test: Antimicrobial activity against methicillin-resistant Staphylococcus aureus PU32 expressing inducible ermA incubated for 20 hrs by two-fold microbroth dilution method; details: PU32, 20 h
[5] = tested on: Staphylococcus aureus; test: Antimicrobial activity against methicillin-resistant Staphylococcus aureus PU20 expressing constitutive ermC incubated for 20 hrs by two-fold microbroth dilution method; details: PU20, 20 h
[6] = tested on: Haemophilus influenzae; test: Antimicrobial activity against azithromycin-susceptible and ampicillin-resistant Haemophilus influenzae 11P037 incubated for 20 to 24 hrs by two-fold microbroth dilution method
[7] = tested on: Streptococcus pyogenes; test: Antimicrobial activity against Streptococcus pyogenes 12-207 expressing mef incubated for 20 to 24 hrs by two-fold microbroth dilution method
[8] = tested on: Moraxella catarrhalis; test: Antimicrobial activity against erythromycin-susceptible Moraxella catarrhalis 11B366 incubated for 20 hrs by two-fold microbroth dilution method; details: 11B366, 20 h
[9] = tested on: Streptococcus pneumoniae; test: Bactericidal activity against erythromycin-susceptible Streptococcus pneumoniae ATCC 49619 incubated for 20 to 24 hrs followed by sub-culturing for 24 hrs in absence of compound
[10] = tested on: Streptococcus pneumoniae; test: Bactericidal activity against penicillin-susceptible Streptococcus pneumoniae PU09 incubated for 20 to 24 hrs followed by sub-culturing for 24 hrs in absence of compound
[11] = tested on: Streptococcus pyogenes; test: Bactericidal activity against Streptococcus pyogenes 01-968 expressing inducible ermA incubated for 20 to 24 hrs followed by sub-culturing for 24 hrs in absence of compound
[12] = tested on: Streptococcus pyogenes; test: Bactericidal activity against Streptococcus pyogenes 12-207 expressing mef incubated for 20 to 24 hrs followed by sub-culturing for 24 hrs in absence of compound
[13] = tested on: Haemophilus influenzae; test: Bactericidal activity against azithromycin-susceptible and ampicillin-resistant Haemophilus influenzae 11P037 incubated for 20 to 24 hrs followed by sub-culturing for 24 hrs in absence of compound
[14] = tested on: Staphylococcus aureus; test: Bactericidal activity against methicillin-resistant Staphylococcus aureus PU32 expressing inducible ermA incubated for 20 hrs followed by sub-culturing for 24 hrs in absence of compound
[15] = tested on: Staphylococcus aureus; test: Bactericidal activity against methicillin-resistant Staphylococcus aureus PU20 expressing constitutive ermC incubated for 20 hrs followed by sub-culturing for 24 hrs in absence of compound
[16] = tested on: Moraxella catarrhalis; test: Bactericidal activity against erythromycin-susceptible Moraxella catarrhalis 11B366 incubated for 20 hrs followed by sub-culturing for 24 hrs in absence of compound
[17] = tested on: Streptococcus pneumoniae; test: Ratio of MBC to MIC against erythromycin-susceptible Streptococcus pneumoniae ATCC 49619
[18] = tested on: Streptococcus pneumoniae; test: Ratio of MBC to MIC against penicillin-susceptible Streptococcus pneumoniae PU09
[19] = tested on: Streptococcus pyogenes; test: Ratio of MBC to MIC against Streptococcus pyogenes 01-968 expressing inducible ermA
[20] = tested on: Streptococcus pyogenes; test: Ratio of MBC to MIC against Streptococcus pyogenes 12-207 expressing mef
[21] = tested on: Haemophilus influenzae; test: Ratio of MBC to MIC against azithromycin-susceptible and ampicillin-resistant Haemophilus influenzae 11P037
[22] = tested on: Staphylococcus aureus; test: Ratio of MBC to MIC against methicillin-resistant Staphylococcus aureus PU32 expressing inducible ermA
[23] = tested on: Staphylococcus aureus; test: Ratio of MBC to MIC against methicillin-resistant Staphylococcus aureus PU20 expressing constitutive ermC
[24] = tested on: Moraxella catarrhalis; test: Ratio of MBC to MIC against erythromycin-susceptible Moraxella catarrhalis 11B366

SMILES	MIC [1] [µg/mL]	MIC [2] [µg/mL]	MIC [3] [µg/mL]	MIC [4] [µg/mL]	MIC [5] [µg/mL]	MIC [6] [µg/mL]	MIC [7] [µg/mL]	MIC [8] [µg/mL]	MBC [9] [µg/mL]	MBC [10] [µg/mL]	MBC [11] [µg/mL]	MBC [12] [µg/mL]	MBC [14] [µg/mL]	MBC [15] [µg/mL]	MBC [16] [µg/mL]	Ratio [17]	Ratio [18]	Ratio [19]	Ratio [20]	Ratio [22]	other results
CC[C@H]1OC(=O)[C@H](C)[C@@H](OC(=O)Cc2ccccn2)[C@H](C)[C@@H](O[C@@H]2O[C@H](C)C[C@H](N(C)C)[C@H]2O)[C@](C)(OC)C[C@@H](C)/C(=N\OCC#Cc2cnc(N)nc2)[C@H](C)[C@H]2OC(=O)O[C@@]21C	0.016 (≈ 0.0182 µM)	0.5 (≈ 0.568 µM)	0.25 (≈ 0.284 µM)	1 (≈ 1.14 µM)	128 (≈ 145 µM)	8 (≈ 9.08 µM)	0.25 (≈ 0.284 µM)	2 (≈ 2.27 µM)	0.031 (≈ 0.0352 µM)	1 (≈ 1.14 µM)	0.5 (≈ 0.568 µM)	> 2	8 (≈ 9.08 µM)	256 (≈ 291 µM)	4 (≈ 4.54 µM)	2	2	2	>8	8	MBC [13]: 64 µg/mL (≈ 72.6 µM); Ratio [21]: 8; Ratio [23]: 2; Ratio [24]: 2
CC[C@H]1OC(=O)[C@H](C)[C@@H](OC(=O)Cc2ccccn2)[C@H](C)[C@@H](O[C@@H]2O[C@H](C)C[C@H](N(C)C)[C@H]2O)[C@](C)(OC)C[C@@H](C)/C(=N\OCC#Cc2cncc(N)c2)[C@H](C)[C@H]2OC(=O)O[C@@]21C	≤ 0.008	0.5 (≈ 0.568 µM)	0.125 (≈ 0.142 µM)	0.5 (≈ 0.568 µM)	128 (≈ 145 µM)	8 (≈ 9.09 µM)	0.125 (≈ 0.142 µM)	1 (≈ 1.14 µM)	0.008 (≈ 0.00909 µM)	1 (≈ 1.14 µM)	0.5 (≈ 0.568 µM)	> 1	> 4	256 (≈ 291 µM)	2 (≈ 2.27 µM)	>=1	2	4	>8	>8	MBC [13]: > 64 µg/mL; Ratio [21]: >8; Ratio [23]: 2; Ratio [24]: 2
CC[C@H]1OC(=O)[C@H](C)[C@@H](OC(=O)Cc2ccccn2)[C@H](C)[C@@H](O[C@@H]2O[C@H](C)C[C@H](N(C)C)[C@H]2O)[C@](C)(OC)C[C@@H](C)/C(=N\OCC#Cc2cncc(C(N)=O)c2)[C@H](C)[C@H]2OC(=O)O[C@@]21C	0.016 (≈ 0.0176 µM)	0.5 (≈ 0.551 µM)	0.031 (≈ 0.0341 µM)	0.5 (≈ 0.551 µM)	256 (≈ 282 µM)	8 (≈ 8.81 µM)	0.016 (≈ 0.0176 µM)	1 (≈ 1.1 µM)	0.016 (≈ 0.0176 µM)	1 (≈ 1.1 µM)	0.062 (≈ 0.0683 µM)	> 0.125	> 4	> 256	2 (≈ 2.2 µM)	1	2	2	>8	>8	MBC [13]: 64 µg/mL (≈ 70.5 µM); Ratio [21]: 8; Ratio [23]: >2; Ratio [24]: 2
CC[C@H]1OC(=O)[C@H](C)[C@@H](OC(=O)Cc2ccccn2)[C@H](C)[C@@H](O[C@@H]2O[C@H](C)C[C@H](N(C)C)[C@H]2O)[C@](C)(OC)C[C@@H](C)/C(=N\OCC#Cc2cccnc2)[C@H](C)[C@H]2OC(=O)O[C@@]21C	≤ 0.008	0.5 (≈ 0.578 µM)	0.25 (≈ 0.289 µM)	1 (≈ 1.16 µM)	128 (≈ 148 µM)	8 (≈ 9.25 µM)	0.125 (≈ 0.145 µM)	2 (≈ 2.31 µM)	0.008 (≈ 0.00925 µM)	1 (≈ 1.16 µM)	0.25 (≈ 0.289 µM)	> 1	> 8	128 (≈ 148 µM)	4 (≈ 4.62 µM)	>=1	2	1	>8	>8	MBC [13]: > 64 µg/mL; Ratio [21]: >8; Ratio [23]: 1; Ratio [24]: 2
CC[C@H]1OC(=O)[C@H](C)[C@@H](OC(=O)Cc2ccccn2)[C@H](C)[C@@H](O[C@@H]2O[C@H](C)C[C@H](N(C)C)[C@H]2O)[C@](C)(OC)C[C@@H](C)/C(=N\OCC#Cc2ccc3nccnc3c2)[C@H](C)[C@H]2OC(=O)O[C@@]21C	≤ 0.008	0.5 (≈ 0.546 µM)	0.031 (≈ 0.0338 µM)	1 (≈ 1.09 µM)	128 (≈ 140 µM)	16 (≈ 17.5 µM)	0.062 (≈ 0.0677 µM)	2 (≈ 2.18 µM)	0.008 (≈ 0.00873 µM)	1 (≈ 1.09 µM)	0.25 (≈ 0.273 µM)	> 0.5	> 8	128 (≈ 140 µM)	2 (≈ 2.18 µM)	>=1	2	8	>8	>8	MBC [13]: > 128 µg/mL; Ratio [21]: >8; Ratio [23]: 1; Ratio [24]: 1
CC[C@H]1OC(=O)[C@H](C)[C@@H](OC(=O)Cc2ccccn2)[C@H](C)[C@@H](O[C@@H]2O[C@H](C)C[C@H](N(C)C)[C@H]2O)[C@](C)(OC)C[C@@H](C)/C(=N\OCC#Cc2ccc(-n3ccnc3)cc2)[C@H](C)[C@H]2OC(=O)O[C@@]21C	0.125 (≈ 0.134 µM)	2 (≈ 2.15 µM)	0.062 (≈ 0.0667 µM)	2 (≈ 2.15 µM)	32 (≈ 34.4 µM)	> 256	1 (≈ 1.08 µM)	4 (≈ 4.3 µM)	0.25 (≈ 0.269 µM)	4 (≈ 4.3 µM)	> 0.5	8 (≈ 8.6 µM)	> 16	64 (≈ 68.8 µM)	8 (≈ 8.6 µM)	2	2	>8	8	>8	Ratio [23]: 2; Ratio [24]: 2
